Active and inactive are the calls of the source. How the calls were made is not given here.
Test system: CCRIS mutagenicity, Ames/micronucleus/aberration tests
Assay: CCRIS mutagenicity studies
[1] = Test System: AMES SALMONELLA TYPHIMURIUM, Strain/Indicator: TA98, Metabolic Activation: NONE, Method: STANDARD PLATE
[2] = Test System: AMES SALMONELLA TYPHIMURIUM, Strain/Indicator: TA98, Metabolic Activation: RAT, LIVER, S-9, PHENOBARBITAL, Method: STANDARD PLATE
[3] = Test System: AMES SALMONELLA TYPHIMURIUM, Strain/Indicator: TA100, Metabolic Activation: NONE, Method: STANDARD PLATE
[4] = Test System: AMES SALMONELLA TYPHIMURIUM, Strain/Indicator: TA100, Metabolic Activation: RAT, LIVER, S-9, PHENOBARBITAL, Method: STANDARD PLATE
[5] = Test System: AMES SALMONELLA TYPHIMURIUM, Strain/Indicator: TA1537, Metabolic Activation: RAT, LIVER, S-9, PHENOBARBITAL, Method: STANDARD PLATE
[6] = Test System: AMES SALMONELLA TYPHIMURIUM, Strain/Indicator: TA1538, Metabolic Activation: RAT, LIVER, S-9, PHENOBARBITAL, Method: STANDARD PLATE
[7] = Test System: AMES SALMONELLA TYPHIMURIUM, Strain/Indicator: TA100, Metabolic Activation: NONE, Method: PREINCUBATION
[8] = Test System: AMES SALMONELLA TYPHIMURIUM, Strain/Indicator: TA1535, Metabolic Activation: NONE, Method: PREINCUBATION

SMILES: Nc1ccc2c([nH]c3ccccc32)c1[N+](=O)[O-]
- mutagenic call [1]: active; positive
- mutagenic call [2]: active; positive
- mutagenic call [3]: active; positive
- mutagenic call [4]: active; positive
- mutagenic call (Test System: AMES SALMONELLA TYPHIMURIUM, Strain/Indicator: TA1537, Metabolic Activation: NONE, Method: STANDARD PLATE): active; positive
- mutagenic call [5]: active; positive
- mutagenic call (Test System: AMES SALMONELLA TYPHIMURIUM, Strain/Indicator: TA1538, Metabolic Activation: NONE, Method: STANDARD PLATE): active; positive
- mutagenic call [6]: active; positive
- mutagenic call (Test System: AMES SALMONELLA TYPHIMURIUM, Strain/Indicator: TA1977, Metabolic Activation: NONE, Method: STANDARD PLATE): inactive; negative
- mutagenic call (Test System: AMES SALMONELLA TYPHIMURIUM, Strain/Indicator: TA1977, Metabolic Activation: RAT, LIVER, S-9, PHENOBARBITAL, Method: STANDARD PLATE): active; positive

SMILES: BrCC1CO1 (stereo unspecified)
- mutagenic call (Test System: AMES SALMONELLA TYPHIMURIUM, Strain/Indicator: TA100, Metabolic Activation: HAMSTER, LIVER, S-9, AROCLOR 1254 (10%), Method: PREINCUBATION): active; positive
- mutagenic call [7]: active; positive
- mutagenic call (Test System: AMES SALMONELLA TYPHIMURIUM, Strain/Indicator: TA100, Metabolic Activation: RAT, LIVER, S-9, AROCLOR 1254 (10%), Method: PREINCUBATION): active; positive
- mutagenic call (Test System: AMES SALMONELLA TYPHIMURIUM, Strain/Indicator: TA1535, Metabolic Activation: HAMSTER, LIVER, S-9, AROCLOR 1254 (10%), Method: PREINCUBATION): active; positive
- mutagenic call [8]: active; positive
- mutagenic call (Test System: AMES SALMONELLA TYPHIMURIUM, Strain/Indicator: TA1535, Metabolic Activation: RAT, LIVER, S-9, AROCLOR 1254 (10%), Method: PREINCUBATION): active; positive

SMILES: CC(C)c1ccc(/C=C/c2ccc(N)cc2)cc1
- mutagenic call [1]: inactive; negative
- mutagenic call (Test System: AMES SALMONELLA TYPHIMURIUM, Strain/Indicator: TA98, Metabolic Activation: RAT, LIVER, S9, AROCLOR, Method: STANDARD PLATE): active; positive
- mutagenic call [3]: inactive; negative
- mutagenic call (Test System: AMES SALMONELLA TYPHIMURIUM, Strain/Indicator: TA100, Metabolic Activation: RAT, LIVER, S9, AROCLOR, Method: STANDARD PLATE): active; positive

SMILES: c1cc(-c2ccncc2)ccn1
- mutagenic call (Test System: AMES SALMONELLA TYPHIMURIUM, Strain/Indicator: TA97, Metabolic Activation: RAT, LIVER, S-9, PHENOBARBITAL, Method: STANDARD PLATE): inactive; negative
- mutagenic call (Test System: AMES SALMONELLA TYPHIMURIUM, Strain/Indicator: TA97, Metabolic Activation: RAT, LIVER, S-9, SODIUM PHENOBARBITAL, Method: PREINCUBATION): active; positive
- mutagenic call [2]: inactive; negative
- mutagenic call [4]: inactive; negative
- mutagenic call (Test System: AMES SALMONELLA TYPHIMURIUM, Strain/Indicator: TA100, Metabolic Activation: RAT, LIVER, S-9, SODIUM PHENOBARBITAL, Method: PREINCUBATION): active; positive
- mutagenic call (Test System: AMES SALMONELLA TYPHIMURIUM, Strain/Indicator: TA1535, Metabolic Activation: RAT, LIVER, S-9, PHENOBARBITAL, Method: STANDARD PLATE): inactive; negative
- mutagenic call [5]: active; positive
- mutagenic call [6]: inactive; negative

SMILES: COc1cc2c3c(c1OC)-c1cc4c(cc1C[C@@H]3N(C)CC2)OCO4
- mutagenic call (Test System: AMES SALMONELLA TYPHIMURIUM, Strain/Indicator: TA98, Metabolic Activation: RAT, LIVER, S-9, PHENOBARBITAL AND BETA-NAPHTHOFLAVONE, Method: PREINCUBATION): active; positive
- mutagenic call (Test System: AMES SALMONELLA TYPHIMURIUM, Strain/Indicator: TA100, Metabolic Activation: RAT, LIVER, S-9, PHENOBARBITAL AND BETA-NAPHTHOFLAVONE, Method: PREINCUBATION): active; positive

SMILES: NC(Cc1c[nH]c2ccccc12)C(=O)O (stereo unspecified)
- mutagenic call (Test System: AMES SALMONELLA TYPHIMURIUM, Strain/Indicator: TA98, Metabolic Activation: RAT LIVER S-9, CHLOROPHENE, Method: STANDARD PLATE (COMPOUND HEATED AT 250 DEGREES CELSIUS FOR 20 MIN)): inactive; negative

SMILES: [O]=[W](=[O])([OH])[OH]
- mutagenic call (Test System: AMES SALMONELLA TYPHIMURIUM, Strain/Indicator: TA98, Metabolic Activation: NONE, Method: PREINCUBATION): inactive; negative
- mutagenic call (Test System: AMES SALMONELLA TYPHIMURIUM, Strain/Indicator: TA98, Metabolic Activation: RAT LIVER S-9, PHENOBARBITAL AND BETA-NAPHTHOFLAVONE, Method: PREINCUBATION): inactive; negative
- mutagenic call [7]: inactive; negative
- mutagenic call (Test System: AMES SALMONELLA TYPHIMURIUM, Strain/Indicator: TA100, Metabolic Activation: RAT LIVER S-9, PHENOBARBITAL AND BETA-NAPHTHOFLAVONE, Method: PREINCUBATION): inactive; negative
- mutagenic call [8]: inactive; negative
- mutagenic call (Test System: AMES SALMONELLA TYPHIMURIUM, Strain/Indicator: TA1535, Metabolic Activation: RAT LIVER S-9, PHENOBARBITAL AND BETA-NAPHTHOFLAVONE, Method: PREINCUBATION): inactive; negative
- mutagenic call (Test System: AMES SALMONELLA TYPHIMURIUM, Strain/Indicator: TA1537, Metabolic Activation: NONE, Method: PREINCUBATION): inactive; negative
- mutagenic call (Test System: AMES SALMONELLA TYPHIMURIUM, Strain/Indicator: TA1537, Metabolic Activation: RAT LIVER S-9, PHENOBARBITAL AND BETA-NAPHTHOFLAVONE, Method: PREINCUBATION): inactive; negative
- mutagenic call (Test System: AMES SALMONELLA TYPHIMURIUM, Strain/Indicator: TA1538, Metabolic Activation: NONE, Method: PREINCUBATION): inactive; negative
- mutagenic call (Test System: AMES SALMONELLA TYPHIMURIUM, Strain/Indicator: TA1538, Metabolic Activation: RAT LIVER S-9, PHENOBARBITAL AND BETA-NAPHTHOFLAVONE, Method: PREINCUBATION): inactive; negative
- mutagenic call (Test System: E.COLI, Strain/Indicator: WP2UVRA, Metabolic Activation: NONE, Method: PREINCUBATION): inactive; negative
- mutagenic call (Test System: E.COLI, Strain/Indicator: WP2UVRA, Metabolic Activation: RAT LIVER S-9, PHENOBARBITAL AND BETA-NAPHTHOFLAVONE, Method: PREINCUBATION): inactive; negative

SMILES: Cc1cc(C)c(C)cc1C
- mutagenic call (Test System: AMES SALMONELLA TYPHIMURIUM, Strain/Indicator: TA97A, Metabolic Activation: NONE, Method: STANDARD PLATE): inactive; negative
- mutagenic call (Test System: AMES SALMONELLA TYPHIMURIUM, Strain/Indicator: TA97A, Metabolic Activation: RAT LIVER S-9, AROCLOR 1254, Method: STANDARD PLATE): inactive; negative
- mutagenic call [1]: inactive; negative
- mutagenic call (Test System: AMES SALMONELLA TYPHIMURIUM, Strain/Indicator: TA98, Metabolic Activation: RAT LIVER S-9, AROCLOR 1254, Method: STANDARD PLATE): inactive; negative
- mutagenic call [3]: inactive; negative
- mutagenic call (Test System: AMES SALMONELLA TYPHIMURIUM, Strain/Indicator: TA100, Metabolic Activation: RAT LIVER S-9, AROCLOR 1254, Method: STANDARD PLATE): inactive; negative
- mutagenic call (Test System: AMES SALMONELLA TYPHIMURIUM, Strain/Indicator: TA102, Metabolic Activation: NONE, Method: STANDARD PLATE): inactive; negative
- mutagenic call (Test System: AMES SALMONELLA TYPHIMURIUM, Strain/Indicator: TA102, Metabolic Activation: RAT LIVER S-9, AROCLOR 1254, Method: STANDARD PLATE): inactive; negative

SMILES: CC(=O)OC/C=C(\C)CCC=C(C)C
- mutagenic call (End Point: IN VITRO CHROMOSOMAL ABERRATIONS, Test System: CHINESE HAMSTER OVARY CELLS, Metabolic Activation: NONE): inactive; negative; precipitation occurred at 100 ug/ml
- mutagenic call (End Point: IN VITRO CHROMOSOMAL ABERRATIONS, Test System: CHINESE HAMSTER OVARY CELLS, Metabolic Activation: RAT, LIVER, S-9, AROCLOR 1254): inactive; negative; precipitation occurred at 150 ug/ml

SMILES: Cc1ccc(S(=O)(=O)OC[C@H]2CO2)cc1
- mutagenic call [7]: active; positive
- mutagenic call [3]: active; positive
- mutagenic call (Test System: AMES SALMONELLA TYPHIMURIUM, Strain/Indicator: TA100, Metabolic Activation: RAT, LIVER, S-9, PCB, Method: PREINCUBATION): active; positive

Reference: PubChem BioAssay AID1259407 (Chemical Carcinogenesis Research Information System (CCRIS), 2018)
